Data taken from patent publication US20250186556A1, “COMBINATION THERAPY WITH IMMUNOMODULATORS, DYRK1A INHIBITORS, AND GLP1R AGONISTS FOR TYPE 1 DIABETES TREATMENT” (ICAHN SCHOOL OF MEDICINE AT MOUNT SINAI, priority 2022, published 2025).

Experiments:
human β-cells [1] = assay: Human islet single cell RNA sequencing (scRNA-seq), gene set enrichment in β-cells; assay type: cell-based; details: human islets, 10 μM harmine, 10 nM exendin-4, 6 h
Protocol: After treatment, human islets were washed twice with PBS and centrifuged at 300 rpm for three min. After removing the PBS, 200 μl pre-warmed Accutase was added and the islets were incubated at 37° C. for 10 minutes. Then, complete RPMI medium was added, the sample centrifuged at 1000 rpm for three min, and the pellet was washed with PBS. Cells were then resuspended in binding buffer (Miltenyi Biotec) and dead cell removal beads, the tube was incubated for 15 minutes at room temperature and the cell suspension applied onto the dead cell removal column (Miltenyi Biotec), which was attached to the MACS separator. […]
Cell samples were prepared according to the user guide of 10× Genomics Single Cell 3′ V3.1 Reagent Kit, processed with 10× Genomic Chromium Controller for partitioning and barcoding, followed by the cDNA library generation. The total cell concentration analyzed by the Countess 3 was then sequenced by the NovaSeq 6000 System (Illumina). […] After the 10×, h5 format file was generated, the data were analyzed on the R language platform with Seurat package V.4.0. […]
After assessment of the data quality control parameters as above, integrated scRNA-data were created with Seurat's SCTransform function without allocating method parameters. […] After enrichment scores were calculated for each single cell, they were added to the Meta data for analysis and visualization by dotplot.

human β-cells [2] = assay: Analysis of human β-cell death in vitro (TUNEL/insulin staining); assay type: cell-based; details: 10 μM harmine, 10 nM exendin-4, 24 hours, TUNEL
Protocol: Briefly, after washing the human islets with PBS twice, 200 μl pre-warmed Accutase (Corning) was added, and the tube was incubated at 37° C. for 10 minutes. Then, complete RPMI medium (RPMI with 5 mM D-glucose, 10% FBS, 100 units/ml penicillin, and 100 μg/ml streptomycin) was added, the sample was centrifuged at 1000 rpm for three min, the pellet was washed with PBS and centrifuged again at 1000 rpm for three min. The pellet was resuspended in complete RPMI medium and 50,000 cells/well were plated on 12-mm glass coverslips, placed in 24-well plates, and incubated at 37° C. and 5% CO2 for 24 hours. […] Cells were incubated at 37° C. and 5% CO2 for 24 hours. Then, cells were fixed in 4% paraformaldehyde and TUNEL (cell death marker) and insulin staining were performed using the DeadEnd Fluorometric TUNEL System (Promega), anti-proinsulin/C-peptide antibody (DSHB), and DAPI for nuclei detection. A minimum of 1,500 β-cells were examined per coverslip.

[3] = tested on: patients with new-onset type 1 diabetes; details: for up to seven years following initial diagnosis; cited from earlier work

For `COc1ccc2c(c1)[nH]c1c(C)nccc12` [harmine], the “inhibitory HLA-E expression in β-cells treated with cytokines” value (human β-cells [1]) was “increased”, the “expression of pro-inflammatory, intrinsic and extrinsic apoptosis, HLA class I, chemokines CXCL9-11 and interferon regulatory factor 1-9 signaling pathways in β-cells treated with cytokines” value (human β-cells [1]; GSEA) was “not with the drugs alone” and the “human β-cell death induced by thapsigargin” value (human β-cells [2]; 500 nM thapsigargin) was “non-significant, partial protection”. For the same compound, the “human β-cell death induced by cytokines” value (human β-cells [2]; cytokines IL-1β, TNF-α, IFN-γ) was “non-significant, partial protection”.
For “teplizumab: humanized, non-mitogenic aglycosylated anti-CD3 monoclonal antibody”, the “loss of β-cell function” value [3] is given as “reduces the loss of β-cell function”.
